Results published in the Kinase Knowledgebase extract (Sharma et al. 2016).

target: PIK3CD (Human) (UniProt O00329); test: Assessment of PIK3CD Kinase Activity (Scintillation Proximity Assay)
Sequence (O00329 whole entry, looked up): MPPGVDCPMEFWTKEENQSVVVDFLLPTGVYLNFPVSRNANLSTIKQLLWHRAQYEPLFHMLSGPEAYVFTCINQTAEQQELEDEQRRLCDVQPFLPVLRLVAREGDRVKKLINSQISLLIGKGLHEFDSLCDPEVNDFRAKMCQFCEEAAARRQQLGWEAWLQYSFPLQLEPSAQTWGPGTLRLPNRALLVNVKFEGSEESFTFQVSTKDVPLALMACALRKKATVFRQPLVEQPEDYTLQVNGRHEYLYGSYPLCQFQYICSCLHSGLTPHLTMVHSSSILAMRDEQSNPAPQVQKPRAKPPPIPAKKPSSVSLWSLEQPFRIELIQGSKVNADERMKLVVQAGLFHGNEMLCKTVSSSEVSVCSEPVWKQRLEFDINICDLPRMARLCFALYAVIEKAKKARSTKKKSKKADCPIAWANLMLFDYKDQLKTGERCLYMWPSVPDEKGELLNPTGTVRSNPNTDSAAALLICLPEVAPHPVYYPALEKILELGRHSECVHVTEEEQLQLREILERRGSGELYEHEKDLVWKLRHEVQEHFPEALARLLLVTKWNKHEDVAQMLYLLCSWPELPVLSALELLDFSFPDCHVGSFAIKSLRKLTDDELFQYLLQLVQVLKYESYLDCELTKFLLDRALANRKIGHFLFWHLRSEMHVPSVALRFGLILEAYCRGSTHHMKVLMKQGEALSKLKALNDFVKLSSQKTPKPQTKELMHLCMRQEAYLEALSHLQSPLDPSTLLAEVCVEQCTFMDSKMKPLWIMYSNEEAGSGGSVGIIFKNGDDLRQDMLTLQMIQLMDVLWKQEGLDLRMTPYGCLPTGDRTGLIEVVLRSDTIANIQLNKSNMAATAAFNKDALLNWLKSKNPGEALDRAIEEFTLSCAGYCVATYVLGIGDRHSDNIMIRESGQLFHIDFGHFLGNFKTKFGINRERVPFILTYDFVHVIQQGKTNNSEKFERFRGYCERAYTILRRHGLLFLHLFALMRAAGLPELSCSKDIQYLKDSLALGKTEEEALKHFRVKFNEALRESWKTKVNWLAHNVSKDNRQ

| SMILES | IC50 [µM] |
| --- | --- |
| COc1c(C(C)n2nc(C)c3c(N)ncnc32)cc(Cl)c(C)c1CCC(=O)N(C)C (stereo not drawn) | ≤ 0.01 |
| COc1c(C(C)n2nc(C)c3c(N)ncnc32)cc(Cl)c(C#N)c1C1CN(C(C)C)C1 (stereo not drawn) | ≤ 0.01 |
| CCOc1c(C(C)n2nc(C)c3c(N)ncnc32)cc(Cl)c(C#N)c1C1CN(S(=O)(=O)C2CC2)C1 (stereo not drawn) | ≤ 0.01 |
| COc1c(C(C)n2nc(C)c3c(N)ncnc32)cc(Cl)c(C)c1CC1CC1 (stereo not drawn) | 0.05 to 0.2 |
| COc1c(C(C)n2nc(C)c3c(N)ncnc32)cc(Cl)c(F)c1C1CN(CCO)C1 (stereo not drawn) | ≤ 0.01 |
| CCOc1c(C(C)n2nc(C#N)c3c(N)ncnc32)cc(Cl)c(C)c1-c1ccc(C(=O)N(C)C)nc1 (stereo not drawn) | 0.01 to 0.05 |
| CCOc1c(C(C)n2nc(C)c3c(N)ncnc32)cc(Cl)c(C#N)c1C1CN(C(=O)OC)C1 (stereo not drawn) | ≤ 0.01 |
| CCOc1c(C(C)n2nc(C)c3c(N)ncnc32)cc(Cl)c(C#N)c1-c1ccc(-c2cnn(C)n2)nc1 (stereo not drawn) | ≤ 0.01 |
| CCNC(=O)c1c(C)c(Cl)cc(C(C)n2nc(-c3cc(O)cc(F)c3)c3c(N)ncnc32)c1OCC (stereo not drawn) | ≤ 0.01 |
| CCOc1c(C(C)n2nc(C)c3c(N)ncnc32)cc(Cl)c(C#N)c1C1CN(C(=O)NC)C1 (stereo not drawn) | ≤ 0.01 |
| CNC(=O)c1ccc(-c2c(C)c(Cl)cc(C(C)n3nc(C)c4c(N)ncnc43)c2OC)cn1 (stereo not drawn) | ≤ 0.01 |
| CCOc1c(C(C)n2nc(C)c3c(N)ncnc32)cc(Cl)c(C#N)c1-c1ccc(C2=[N+][N+]=C(C)O2)nc1 (stereo not drawn) | ≤ 0.01 |
| CCOc1c(C(C)n2nc(C)c3c(N)ncnc32)cc(Cl)c(C#N)c1C1CN(CCC(F)(F)F)C1 (stereo not drawn) | ≤ 0.01 |
| COc1c(C(C)n2nc(C)c3c(N)ncnc32)cc(Cl)c(C)c1C1CN(CC(F)F)C1 (stereo not drawn) | ≤ 0.01 |
| CNC(=O)CCc1c(C)c(Cl)cc(C(C)n2nc(C)c3c(N)ncnc32)c1OC (stereo not drawn) | ≤ 0.01 |
| CCOc1c(C(C)n2nc(C)c3c(N)ncnc32)cc(Cl)c(C)c1C1CN(C(C)C)C1 (stereo not drawn) | ≤ 0.01 |
| COc1c(C(C)n2nc(C)c3c(N)ncnc32)cc(Cl)c(C)c1-c1cnn(C2CCN(C(C)=O)CC2)c1 (stereo not drawn) | ≤ 0.01 |
| COc1c(C(C)n2nc(C)c3c(N)ncnc32)cc(Cl)c(C#N)c1C1CN(C(C)=O)C1 (stereo not drawn) | ≤ 0.01 |
| CCOc1c(C(C)n2nc(C)c3c(N)ncnc32)cc(Cl)c(C#N)c1C1CN(C(C)(C)CO)C1 (stereo not drawn) | ≤ 0.01 |
| CCOc1c(C(C)n2nc(C)c3c(N)ncnc32)cc(Cl)c(C#N)c1C1CN(CC(C)(C)O)C1 (stereo not drawn) | ≤ 0.01 |
| CCOc1c(C(C)n2nc(C)c3c(N)ncnc32)cc(Cl)c(C#N)c1C1CNC(=O)O1 (stereo not drawn) | ≤ 0.01 |
| CCOc1c(C(C)n2nc(C)c3c(N)ncnc32)cc(Cl)c(C#N)c1C1CCOC1 (stereo not drawn) | ≤ 0.01 |

| SMILES | IC50 [µM] |
| --- | --- |
| CCOc1c(C(C)n2nc(-c3cc[nH]n3)c3c(N)ncnc32)cc(Cl)c(C)c1-c1ccc(C(=O)N(C)C)nc1 (stereo not drawn) | ≤ 0.01 |
| CCNC(=O)c1c(C)c(Cl)cc(C(C)n2nc(-c3ccc4nc(N)sc4c3)c3c(N)ncnc32)c1OCC (stereo not drawn) | ≤ 0.01 |
| COc1c(C(C)n2nc(C)c3c(N)ncnc32)cc(Cl)c(C#N)c1C1CN(C2COC2)C1 (stereo not drawn) | ≤ 0.01 |
| Cc1c(Cl)cc(C(C)n2nc(C)c3c(N)ncnc32)c(OCC2CC2)c1-c1ccc(C(=O)N(C)C)nc1 (stereo not drawn) | ≤ 0.01 |
| CCOc1c(C(C)n2cc(C)c3c(N)ncnc32)cc(Cl)c(C#N)c1C1CN(C(C)C)C1 (stereo not drawn) | ≤ 0.01 |
| CCOc1c(C(C)n2nc(C)c3c(N)ncnc32)cc(C)c(C#N)c1C1CN(CC(C)(C)O)C1 (stereo not drawn) | ≤ 0.01 |
| COc1c(C(C)n2nc(C)c3c(N)ncnc32)cc(Cl)c(C)c1C1CN(C[C@H](O)C(F)(F)F)C1 (stereo partly drawn) | ≤ 0.01 |
| COc1c(C(C)n2nc(C)c3c(N)ncnc32)cc(Cl)c(C#N)c1C1CN(CCO)C1 (stereo not drawn) | ≤ 0.01 |
| CCOc1c(C(C)n2ccc(=O)c3c(N)ncnc32)cc(Cl)c(C#N)c1-c1cncc(S(C)(=O)=O)c1 (stereo not drawn) | ≤ 0.01 |
| CNC(=O)c1cc(-c2c(C)c(Cl)cc(C(C)n3nc(C)c4c(N)ncnc43)c2OC)ccn1 (stereo not drawn) | ≤ 0.01 |
| CCOc1c(C(C)n2nc(C)c3c(N)ncnc32)cc(Cl)c(C#N)c1C1CNC(=O)C1 (stereo not drawn) | ≤ 0.01 |
| COc1c(C(C)n2nc(C)c3c(N)ncnc32)cc(Cl)c(C)c1C1CN(C[C@@H](C)O)C1 (stereo partly drawn) | ≤ 0.01 |
| COc1c(C(C)n2nc(C)c3c(N)ncnc32)cc(Cl)c(C#N)c1-c1cncc(S(C)(=O)=O)c1 (stereo not drawn) | ≤ 0.01 |
| COc1c(C(C)n2nc(C)c3c(N)ncnc32)cc(Cl)c(C)c1C1CN(CC(F)(F)F)C1 (stereo not drawn) | ≤ 0.01 |
| COc1c([C@H](C)n2nc(C)c3c(N)ncnc32)cc(Cl)c(C#N)c1C1CN(C[C@@H](C)O)C1 | ≤ 0.01 |
| COc1c(C(C)n2cc(C)c(=O)c3c(N)ncnc32)cc(Cl)c(C)c1-c1ccc(C(=O)N(C)C)nc1 (stereo not drawn) | ≤ 0.01 |
| CCOc1c(C(C)n2nc(C)c3c(N)ncnc32)cc(Cl)c(C)c1-c1cncc(C(=O)N(C)C)c1 (stereo not drawn) | ≤ 0.01 |
| COc1c(C(C)n2ccc(=O)c3c(N)ncnc32)cc(Cl)c(C)c1-c1cccc(C(=O)N(C)C)c1 (stereo not drawn) | ≤ 0.01 |
| CCOc1c(C(C)n2nc(C)c3c(N)ncnc32)cc(Cl)c(C#N)c1C1CN(C(=O)NC(C)(C)C)C1 (stereo not drawn) | ≤ 0.01 |
| CCOc1c(C(C)n2nc(-c3cccnc3)c3c(N)ncnc32)cc(Cl)c(C)c1-c1ccc(C(=O)N(C)C)nc1 (stereo not drawn) | ≤ 0.01 |
| CCOc1c(C(C)n2nc(C)c3c(N)ncnc32)cc(Cl)c(C#N)c1C1CN(C(C)(C)C(=O)N(C)C)C1 (stereo not drawn) | ≤ 0.01 |
| CCNC(=O)c1c(C)c(Cl)cc(C(C)n2nc(-c3ccc4oc(N)nc4c3)c3c(N)ncnc32)c1OCC (stereo not drawn) | ≤ 0.01 |

| SMILES | IC50 [µM] |
| --- | --- |
| CCOc1c(C(C)n2nc(C(F)F)c3c(N)ncnc32)cc(Cl)c(F)c1C1CN(C[C@H](C)O)C1 (stereo partly drawn) | ≤ 0.01 |
| CCOc1c(C(C)n2cc(C)c3c(N)ncnc32)cc(Cl)c(C#N)c1C1CN(C[C@H](C)O)C1 (stereo partly drawn) | ≤ 0.01 |
| CCNC(=O)c1c(C)c(Cl)cc(C(C)n2nc(-c3cn[nH]c3)c3c(N)ncnc32)c1OCC (stereo not drawn) | ≤ 0.01 |
| COc1c(C(C)n2nc(C)c3c(N)ncnc32)cc(Cl)c(C)c1C1CN(C(C)CF)C1 (stereo not drawn) | ≤ 0.01 |
| COc1c(C(C)n2nc(C)c3c(N)ncnc32)cc(Cl)c(C)c1C1CN(C(=O)c2cnoc2C)C1 (stereo not drawn) | ≤ 0.01 |
| COc1c(C(C)n2nc(C)c3c(N)ncnc32)cc(Cl)c(C)c1-c1cnc(N)nc1 (stereo not drawn) | ≤ 0.01 |
| CCOc1c(C(C)n2nc(C)c3c(N)ncnc32)cc(Cl)c(C#N)c1N1CC(C#N)C1 (stereo not drawn) | ≤ 0.01 |
| COc1c(C(C)n2nc(C)c3c(N)ncnc32)cc(Cl)c(Cl)c1C1CN(C2COC2)C1 (stereo not drawn) | ≤ 0.01 |
| COc1c(C(C)n2nc(C)c3c(N)ncnc32)cc(Cl)c(Cl)c1C1CN(CC(C)(C)O)C1 (stereo not drawn) | ≤ 0.01 |
| COc1c(C(C)n2nc(C)c3c(N)ncnc32)cc(Cl)c(C)c1C1CN(C(=O)[C@@H](C)O)C1 (stereo partly drawn) | ≤ 0.01 |
| COc1c(C(C)n2nc(C)c3c(N)ncnc32)cc(Cl)c(C)c1-c1ccc(N)nc1 (stereo not drawn) | ≤ 0.01 |
| COc1c(C(C)n2nc(C)c3c(N)ncnc32)cc(Cl)c(C#N)c1C1CN(CC2CC2)C1 (stereo not drawn) | ≤ 0.01 |
| COc1c(C(C)n2ccc(=O)c3c(N)ncnc32)cc(Cl)c(C)c1-c1cncc(F)c1 (stereo not drawn) | ≤ 0.01 |
| CCOc1c(C(C)n2nc(C)c3c(N)ncnc32)cc(Cl)c(F)c1C1CN(CC(F)F)C1 (stereo not drawn) | ≤ 0.01 |
| COc1c(C(C)n2nc(C)c3c(N)ncnc32)cc(Cl)c(C)c1-c1cnn(C2CCN(C)CC2)c1 (stereo not drawn) | ≤ 0.01 |
| COc1c(C(C)n2nc(C)c3c(N)ncnc32)cc(Cl)c(F)c1C1CN(C[C@H](C)O)C1 (stereo partly drawn) | ≤ 0.01 |
| CCOc1c(C(C)n2nc(CO)c3c(N)ncnc32)cc(Cl)c(C)c1-c1ccc(C(=O)N(C)C)nc1 (stereo not drawn) | ≤ 0.01 |
| CCOc1c(C(C)n2nc(-c3cn[nH]c3)c3c(N)ncnc32)cc(Cl)c(C)c1-c1ccc(C(=O)N(C)C)nc1 (stereo not drawn) | ≤ 0.01 |
| COc1c(C(C)n2nc(C)c3c(N)ncnc32)cc(Cl)c(C#N)c1C1CN(C(=O)C2CC2)C1 (stereo not drawn) | ≤ 0.01 |
| COc1c(C(C)n2nc(C)c3c(N)ncnc32)cc(Cl)c(Cl)c1C1CN(C[C@@H](C)O)C1 (stereo partly drawn) | ≤ 0.01 |
| COc1c(C(C)n2nc(C(F)F)c3c(N)ncnc32)cc(C#N)c(C)c1C1CN(C(C)=O)C1 (stereo not drawn) | ≤ 0.01 |
| COc1c(C(C)n2nc(C)c3c(N)ncnc32)cc(Cl)c(C)c1C1CN(C2(CC#N)CCC2)C1 (stereo not drawn) | ≤ 0.01 |

| SMILES | IC50 [µM] |
| --- | --- |
| CCNC(=O)c1c(C)c(Cl)cc(C(C)n2nc(-c3ccc4cn[nH]c4c3)c3c(N)ncnc32)c1OCC (stereo not drawn) | ≤ 0.01 |
| CCOc1c(C(C)n2nc(C)c3c(N)ncnc32)cc(Cl)c(C)c1C1CN(C(=O)[C@@H](C)O)C1 (stereo partly drawn) | ≤ 0.01 |
| COc1c(C(C)n2nc(C)c3c(N)ncnc32)cc(Cl)c(C)c1C1CN([C@H](C)CO)C1 (stereo partly drawn) | ≤ 0.01 |
| CCOc1c(C(C)n2nc(C)c3c(N)ncnc32)cc(Cl)c(C#N)c1C1CN(S(=O)(=O)CC)C1 (stereo not drawn) | ≤ 0.01 |
| CCOc1c(C(C)n2nc(C)c3c(N)ncnc32)cc(Cl)c(C)c1-c1cnn(CC(=O)N(C)C)c1 (stereo not drawn) | ≤ 0.01 |
| CCOc1c(C(C)n2nc(C)c3c(N)ncnc32)cc(Cl)c(C#N)c1C1CN(CC(C)C)C1 (stereo not drawn) | ≤ 0.01 |
| COc1c(C(C)n2nc(C)c3c(N)ncnc32)cc(Cl)c(Cl)c1C1CN(C(C)=O)C1 (stereo not drawn) | ≤ 0.01 |
| COc1c(C(C)n2nc(C(F)F)c3c(N)ncnc32)cc(C#N)c(C)c1C1CN(CC(F)(F)F)C1 (stereo not drawn) | ≤ 0.01 |
| CCOc1c(C(C)n2nc(C)c3c(N)ncnc32)cc(Cl)c(C#N)c1C1CN(C(=O)OC(C)C)C1 (stereo not drawn) | ≤ 0.01 |
| COc1c(C(C)n2nc(C)c3c(N)ncnc32)cc(Cl)c(F)c1C1CN(CC(C)(C)O)C1 (stereo not drawn) | ≤ 0.01 |
| COc1c(C(C)n2nc(C)c3c(N)ncnc32)cc(Cl)c(C)c1C1CN(C(CO)C(F)(F)F)C1 (stereo not drawn) | ≤ 0.01 |
| CCOc1c(C(C)n2nc(C)c3c(N)ncnc32)cc(Cl)c(C#N)c1N1CC(COC)C1 (stereo not drawn) | ≤ 0.01 |
| CCOc1c(C(C)n2nc(C)c3c(N)ncnc32)cc(Cl)c(F)c1C1CNC(=O)O1 (stereo not drawn) | ≤ 0.01 |
| COc1c(C(C)n2nc(C)c3c(N)ncnc32)cc(Cl)c(C#N)c1C1CN(CC2CCOCC2)C1 (stereo not drawn) | ≤ 0.01 |
| CCOc1c(C(C)n2nc(CC#N)c3c(N)ncnc32)cc(Cl)c(C)c1-c1ccc(C(=O)N(C)C)nc1 (stereo not drawn) | ≤ 0.01 |
| CCOc1c(C(C)n2nc(C)c3c(N)ncnc32)cc(C#N)c(C)c1-c1cnn(C)c1 (stereo not drawn) | ≤ 0.01 |
| CCN1CC(c2c(C)c(Cl)cc(C(C)n3nc(C)c4c(N)ncnc43)c2OC)C1 (stereo not drawn) | ≤ 0.01 |
| CCC(C)N1CC(c2c(C)c(Cl)cc(C(C)n3nc(C)c4c(N)ncnc43)c2OC)C1 (stereo not drawn) | ≤ 0.01 |
| COc1c(C(C)n2nc(C)c3c(N)ncnc32)cc(Cl)c(C)c1-c1cnn(C(C)C(=O)N(C)C)c1 (stereo not drawn) | ≤ 0.01 |
| CCNC(=O)c1c(C)c(Cl)cc(C(C)n2nc(-c3ccc4[nH]ccc4c3)c3c(N)ncnc32)c1OCC (stereo not drawn) | ≤ 0.01 |
| COc1c(C(C)n2nc(C)c3c(N)ncnc32)cc(Cl)c(C)c1C1CN(C(=O)C(C)(C)O)C1 (stereo not drawn) | ≤ 0.01 |
| COc1c(C(C)n2nc(C)c3c(N)ncnc32)cc(Cl)c(C)c1-c1cncc(S(C)(=O)=O)c1 (stereo not drawn) | ≤ 0.01 |
